# Results: US20210170000A1, “Larval preparation of Heligmosomoides polygyrus bakeri as well as methods of making it and uses thereof” (Helmholtz Zentrum München Deutsches Forschungszentrum für …, priority 2018, published 2021)
# Columns and labels:
# human MDM = assay: HpbE- or Hpb GDH-treated human MDM with inhibitors or neutralizing antibodies; format: cell-based
# Source text: In order to identify immuneregulatory proteins present in HpbE, the inventors fractionated the extract by size exclusion chromatography and identified active fractions (8-11) based on the capacity to induce the COX metabolite TXB2 as well as IL-10 (FIGS. 4C and 4D). The inventors then identified proteins present in active and non-active fractions by mass spectrometry, thus highlighting Hpb glutamate dehydrogenase (GDH) as a major immuneregulatory candidate, which was uniquely present in active fractions of HpbE (summarized in FIG. 4E). In addition, an inhibitor of GDH (Bithionol), which is also used as an anti-helminthic, reduced the HpbE-triggered induction of PGE2 and IL-10 (FIG. 4F).
# As a new tool for studying the uptake, localization and function of Hpb GDH in vivo and in target cells in vitro, we generated monoclonal antibodies (mABs) specific for Hpb GDH (i.e. not cross-reactive with mammalian (human/mouse) GDH) (FIG. 5). Clone 4F8 was selected as the best candidate for further sub cloning and for testing in neutralization experiments. […]
# As HIF-1α is positively regulated by the p38 MAPK, the inventors studied the involvement of p38 signaling in the induction of type 2-suppressive mediators by HpbE. In human MDM, p38 was phosphorylated upon treatment with HpbE, correlating with the induction of COX-2 (FIG. 11A) and a p38 inhibitor (VX-702) abrogated the induction of IL-10, IL-1R and PGE2-synthetic enzymes (PTGS2 and PTGES) (FIG. 11B to D). In line with HIF-1α dependent regulation in murine BMDM, a pharmacological inhibitor of HIF-1α (acriflavine) attenuated the HpbE-induced expression of IL-10, IL-1β and COX pathway enzymes in human MDM (FIG. 11B to D). However, p38 and HIF-1α were not responsible for the modulation of the 5-LOX pathway (FIG. 11D).
# (§1) Monocyte-derived macrophages (MDM) or bone marrow derived macrophages (BMDM) were generated by culture in the presence of human or murine recombinant GM-CSF (10 ng/ml) (Miltenyi Biotech) and human recombinant TGF-β1 (2 ng/ml) (Peprotech) as previously described (Esser-von Bieren et al. (2013), PLoS Pathog., 9:e1003771; Dietz et al. (2016), J. Allergy Clin Immunol, 139(4):1343-1354.e6). On day 6, cells were harvested and used for further experiments.
# (§2) Eicosanoids were quantified by liquid chromatography tandem mass spectrometry (LC-MS/MS) similar to a previously published method (Henkel et al. (2018); Allergy, doi:10.1111/a11.13700). Cytokines were quantified using commercially available multiplex assays or ELISA kits according to the manufacturer's instructions.
# human granulocytes = assay: Granulocyte chemotaxis (trans-well) towards nasal polyp secretions; format: cell-based; conditions: for reduction of granulocyte chemotaxis in response to nasal polyp secretions: cells from AERD patients (n=6) and healthy controls (n=3), fluticasone propionate 1 μM, Montelukast 10 μM
# Experimental: Granulocyte recruitment (induced by chemokines or nasal polyp secretions) was assessed with or without pre-treatment with Hpb proteins by using trans-well assays. Migrated granulocytes were enumerated microscopically and by flow cytometry.
# PMN were resuspended to a concentration of 1×10^6 cells/ml in the presence of 100 ng/ml human GM-CSF (Miltenyi Biotech) and overnight stimulated with 10 μg/ml HpbE. When mentioned, PMN were pre-treated with 1 μM fluticasone propionate (Sigma-Aldrich), 10 μM montelukast (Cayman Chemical) or conditioned media from MDM stimulated overnight with 10 μg/ml Hpb extract+/−100 μM Indomethacin for 1 hour. PMN migration in response to nasal polyp secretions or a chemokine cocktail of 2 ng/ml RANTES, 20 ng/ml IL-8 (Miltenyi Biotech) and 2 ng/ml LTB4 (Cayman Chemical) was tested. Chemoattractants were placed in the lower wells of a chemotaxis plate (3 μm pore size; Corning). After mounting the transwell unit, […] PMN were added to the top of each well and migration was allowed for 3 hours at 37° C., 5% CO2. The number of cells migrating to the lower well was counted microscopically. In some experiments, manual counting was validated by flow cytometry.
# human granulocytes (PMN) = assay: Mediator production by human granulocytes (PMN); format: cell-based
# Experimental: (§3) Human polymorphonuclear leukocytes (PMN) or peripheral blood mononuclear cells (PBMC) were isolated from the peripheral blood from healthy controls or patients suffering from AERD using density gradient centrifugation. For some experiments, cells were further separated into monocytes (CD14^+), neutrophils (CD16^+) or eosinophils. CD14^+ monocytes were differentiated into macrophages by culture for 6-8 days in the presence of GM-CSF and TGFbl. In most experiments, cells were treated with Hpb proteins at a concentration of 10 μg protein/ml.
# (§4) Mediator analysis in cell supernatants (+/−Hpb proteins) was performed by immunoassay for individual mediators (e.g. LTs, PGE2 or IL-10) or LC-MS/MS or Multiplex cytokine analysis for overall mediator profiles.
# Hpb proteins (e.g., total somatic homogenate of Hpb L3 larvae) broadly modulate mediator profiles of human myeloid cells.
# as §2
# [1] = test system: human monocyte derived macrophages (MDM); assay: Mediator (eicosanoid, cytokine) production by human monocyte derived macrophages; format: cell-based
# Experimental: as §3, §4
# In order to study the effect of Hpb proteins on human macrophages, human monocyte derived macrophages (MDM) were stimulated with A23187 after 16 hrs. treatment with helminth proteins (e.g., total somatic homogenate of Hpb L3 larvae).
# (§5) Human monocyte derived macrophages (MDM) were isolated, cultured and stimulated as described herein, e.g. in Example 3.
# (§6) Eicosanoids or cytokines were quantified by LC-MS/MS or immunoassays as described herein, e.g. in Example 3.
# as §1, §2
# MDM from AERD patients = assay: Eicosanoid production by MDM from AERD patients; format: cell-based, human
# Source text: To validate the efficacy of HpbE in a relevant therapeutic indication, the inventors generated MDM from AERD patients and studied the effects of HpbE and FP on the mediator output.
# as §5, §6
# [2] = purified recombinant His-tagged protein
compound,measurement,setting,value
CC(C)(C)c1ccc(S(=O)(=O)/C=C/C#N)cc1 [BAY 11-7085],"PGE2, IL-10 and IL-1β production as well as gene expression of PGE2-synthetic enzymes and IL-10","human MDM; HpbE-treated human MDM, inhibition of NFκβ, 5 μM",significantly reduced
Oc1c(Cl)cc(Cl)cc1Sc1cc(Cl)cc(Cl)c1O [Bithionol],HpbE-triggered induction of PGE2 and IL-10,"human MDM; inhibitor of GDH, 20 μM",reduced
CS(=O)(=O)c1ccc(-c2noc(C(F)(F)F)c2-c2ccccc2)cc1 [CAY10404],HpbE-triggered COX-2 expression,human MDM; COX inhibitors,reduced
same,suppression of the 5-LOX pathway,human MDM; COX inhibitors,remained largely unaffected
CC(C)(O)c1ccccc1CC[C@@H](SCC1(CC(=O)O)CC1)c1cccc(/C=C/c2ccc3ccc(Cl)cc3n2)c1 [Montelukast],reduction of granulocyte chemotaxis in response to nasal polyp secretions,human granulocytes,10%
NC(=O)c1ccc(N(C(N)=O)c2c(F)cccc2F)nc1-c1ccc(F)cc1F [VX-702],"induction of IL-10, IL-1R and PGE2-synthetic enzymes (PTGS2 and PTGES)",human MDM; p38 inhibitor,abrogated
CCC(=O)O[C@]1(C(=O)SCF)[C@H](C)C[C@H]2[C@@H]3C[C@H](F)C4=CC(=O)C=C[C@]4(C)[C@@]3(F)[C@@H](O)C[C@@]21C [fluticasone propionate],pro-inflammatory arachidonic acid (AA) and linoleic acid (LA) metabolites,human granulocytes (PMN),reduce
same,eicosanoid output in MDM from healthy individuals,[1]; weak induction of PGE2,only minor effects
same,reduction of granulocyte chemotaxis in response to nasal polyp secretions,human granulocytes,failed to reduce chemotactic responses
same,cell recruitment: migration of AERD patient granulocytes towards nasal polyp secretions ex vivo,human granulocytes; pre-treatment of AERD granulocytes,not achieved
same,eicosanoid output of MDM from AERD patients,MDM from AERD patients,no effects
COc1ccc2c(c1)c(CC(=O)O)c(C)n2C(=O)c1ccc(Cl)cc1 [indomethacin],HpbE-triggered COX-2 expression,human MDM; COX inhibitors,reduced
same,suppression of the 5-LOX pathway,human MDM; COX inhibitors,remained largely unaffected
same,"induction of IL-10, IL-1β and PTGES","human MDM; COX inhibitors, CAY10404 10 μM",reduced
"Recombinant Hpb GDH: Recombinant His-tagged Hpb glutamate dehydrogenase (UniProtKB A0A183FP08, SEQ ID NO: 1) expressed in E. coli",PGE2 and IL-10 production by human macrophages,[1]; [2],induce
same,generation of pro-inflammatory cysLTs by human macrophages,[1]; [2],reduce
acriflavine,"HpbE-induced expression of IL-10, IL-1β and COX pathway enzymes",human MDM; pharmacological inhibitor of HIF-1α,attenuated
